{"source": "patent US8252946B2", "about": "“Crystalline forms of tigecycline hydrochloride” (Sandoz AG, priority 2007, dated 2012)", "type_in_all_cases": "physicochemical", "key": {"[1]": {"experiment": "Conversion into other crystalline or amorphous forms on storing at elevated temperature", "details": "after storing for 7 days at 80° C."}, "[2]": {"experiment": "Thermal stability: 4-Epi-Tigecycline and total impurities at ambient conditions and after 7 days at 80° C.", "description": "Tigecycline must be available in a physical stable form as well, in order to avoid degradation and as a consequence the building of undesired byproducts."}, "[3]": {"experiment": "Water content on storage at defined relative humidity at 25° C.", "experimental": "The water content of crystalline form A of Tigecycline hydrochloride may vary from about 0-6.0% e.g. the water content is 0% when stored at 1.7% relative humidity at 25° C., 2.7% when stored at 42.7% relative humidity at 25° C. and 5.8% when stored at 80% relative humidity at 25° C."}, "[4]": {"experiment": "Water solubility testing (saturated solution in distilled water, UV-vis at 347 nm)", "experimental": "The finished dosage form contains lyophilized amorphous Tigecycline respectively Tigecycline hydrochloride. Before lyophilizing, Tigecycline respectively Tigecycline hydrochloride is dissolved in water, thus water solubility is an important factor to consider.\nA UV-vis Lambda 35 spectrophotometer (Perkin-Elmer) was used (λ=347 nm, 1.0 cm quartz cells). Perkin Elmer® UV Win Lab-5.1 software was used.\nA saturated solution of Tigecycline respectively Tigecycline hydrochloride in distilled water was prepared and the suspension was stirred at room temperature for 30 minutes with a stirring speed of 1000 U/min. The suspension was filtrated through a 0.45 μm filter. Finally the resulting solution was diluted 10000-fold and measured against water at a wavelength of 347 nm."}, "[5]": {"experiment": "Storage stability of lyophilized amorphous Tigecycline hydrochloride at room temperature", "details": "stored for about 9 months at room temperature", "experimental": "Moreover crystalline forms A and B of Tigecycline hydrochloride of the present invention show better physical stability than amorphous Tigecycline hydrochloride. For example amorphous Tigecycline hydrochloride was prepared by lyophilization and stored for about 9 months at room temperature. […] Therefore amorphous Tigecycline hydrochloride is not suitable as an intermediate for the formulation of an anti-infective medicament, due to the low stability."}, "[6]": {"details": "after storing for 7 days at 80° C."}}}
{"smiles": "CN(C)c1cc(NC(=O)CNC(C)(C)C)c(O)c2c1C[C@H]1C[C@H]3[C@H](N(C)C)C(O)=C(C(N)=O)C(=O)[C@@]3(O)C(O)=C1C2=O.Cl", "note": "[Form A, Tigecycline hydrochloride]", "values": [{"measurement": "conversion into other crystalline or amorphous forms", "setting": "[1]", "value": "did not convert"}, {"measurement": "change in 4-Epi-Tigecycline content (in words)", "setting": "[2]; [6]", "value": "practically did not change"}, {"measurement": "change in total impurities (in words)", "setting": "[2]; [6]", "value": "low"}, {"measurement": "4-EPI-TIGECYCLINE AT AMBIENT CONDITIONS", "setting": "[2]; listed as A, hydrochloride", "value": 0.84}, {"measurement": "TOTAL IMPURITIES AT AMBIENT CONDITIONS", "setting": "[2]; listed as A, hydrochloride", "value": 1.07}, {"measurement": "water content, span of variation", "setting": "[3]; may vary, depending on relative humidity", "value": "0-6.0%"}, {"measurement": "water content", "setting": "[3]; stored at 1.7% relative humidity at 25° C.", "value": 0, "unit": "%"}, {"measurement": "water content", "setting": "[3]; stored at 42.7% relative humidity at 25° C.", "value": 2.7, "unit": "%"}, {"measurement": "water content", "setting": "[3]; stored at 80% relative humidity at 25° C.", "value": 5.8, "unit": "%"}, {"measurement": "water solubility compared with the other crystalline forms (in words)", "setting": "[4]", "value": "highest water solubility"}, {"measurement": "solubility thermodynamic at 30 min", "setting": "[4]; water, saturated solution in distilled water, stirred 30 minutes at room temperature, filtered 0.45 μm, read-out: Water solubility, CONCENTRATION", "value": 503, "unit": "mg/mL"}]}
{"smiles": "CN(C)c1cc(NC(=O)CNC(C)(C)C)c(O)c2c1C[C@H]1C[C@H]3[C@H](N(C)C)C(O)=C(C(N)=O)C(=O)[C@@]3(O)C(O)=C1C2=O.Cl", "note": "[Form B, Tigecycline hydrochloride]", "values": [{"measurement": "4-EPI-TIGECYCLINE AT AMBIENT CONDITIONS", "setting": "[2]; listed as B, hydrochloride", "value": 0.93}, {"measurement": "TOTAL IMPURITIES AT AMBIENT CONDITIONS", "setting": "[2]; listed as B, hydrochloride", "value": 1.91}, {"measurement": "Water solubility, CONCENTRATION", "setting": "[4]; saturated solution in distilled water, stirred 30 minutes at room temperature, filtered 0.45 μm, hydrochloride", "value": 323, "unit": "mg/mL"}]}
{"smiles": "CN(C)c1cc(NC(=O)CNC(C)(C)C)c(O)c2c1C[C@H]1C[C@H]3[C@H](N(C)C)C(O)=C(C(N)=O)C(=O)[C@@]3(O)C(O)=C1C2=O", "note": "[WO 2006/128150 I, (4S,4aS,5aR,12aS)-4,7-Bis(dimethylamino)-9-[[[(1,1-dimethylethyl)amino]acetyl]amino]-1,4,4a,5,5a,6,11,12a-octahydro-3,10,12,12a-tetrahydroxy-1,11-dioxo-2-naphthacenecarboxamide]", "values": [{"measurement": "change in total impurities (in words)", "setting": "[2]; [6]", "value": "tremendous increase"}, {"measurement": "4-EPI-TIGECYCLINE AT AMBIENT CONDITIONS", "setting": "[2]", "value": 0.36}, {"measurement": "TOTAL IMPURITIES AT AMBIENT CONDITIONS", "setting": "[2]", "value": 0.75}]}
{"smiles": "CN(C)c1cc(NC(=O)CNC(C)(C)C)c(O)c2c1C[C@H]1C[C@H]3[C@H](N(C)C)C(O)=C(C(N)=O)C(=O)[C@@]3(O)C(O)=C1C2=O", "note": "[WO 2006/128150 II, (4S,4aS,5aR,12aS)-4,7-Bis(dimethylamino)-9-[[[(1,1-dimethylethyl)amino]acetyl]amino]-1,4,4a,5,5a,6,11,12a-octahydro-3,10,12,12a-tetrahydroxy-1,11-dioxo-2-naphthacenecarboxamide]", "values": [{"measurement": "change in total impurities (in words)", "setting": "[2]; [6]", "value": "tremendous increase"}, {"measurement": "4-EPI-TIGECYCLINE AT AMBIENT CONDITIONS", "setting": "[2]", "value": 1.04}, {"measurement": "TOTAL IMPURITIES AT AMBIENT CONDITIONS", "setting": "[2]", "value": 1.60}]}
{"smiles": "CN(C)c1cc(NC(=O)CNC(C)(C)C)c(O)c2c1C[C@H]1C[C@H]3[C@H](N(C)C)C(O)=C(C(N)=O)C(=O)[C@@]3(O)C(O)=C1C2=O", "note": "[WO 2006/128150 III, (4S,4aS,5aR,12aS)-4,7-Bis(dimethylamino)-9-[[[(1,1-dimethylethyl)amino]acetyl]amino]-1,4,4a,5,5a,6,11,12a-octahydro-3,10,12,12a-tetrahydroxy-1,11-dioxo-2-naphthacenecarboxamide]", "values": [{"measurement": "4-EPI-TIGECYCLINE 7 DAYS AT 80° C.", "setting": "[2]; after storing 7 days at 80° C.", "value": 2.18}, {"measurement": "TOTAL IMPURITIES 7 DAYS AT 80° C.", "setting": "[2]; after storing 7 days at 80° C.", "value": 4.46, "unit": "%"}, {"measurement": "4-EPI-TIGECYCLINE AT AMBIENT CONDITIONS", "setting": "[2]", "value": 0.16}, {"measurement": "TOTAL IMPURITIES AT AMBIENT CONDITIONS", "setting": "[2]", "value": 0.16, "unit": "%"}, {"measurement": "Water solubility, CONCENTRATION", "setting": "[4]; saturated solution in distilled water, stirred 30 minutes at room temperature, filtered 0.45 μm", "value": 174, "unit": "mg/mL"}]}
{"smiles": "CN(C)c1cc(NC(=O)CNC(C)(C)C)c(O)c2c1C[C@H]1C[C@H]3[C@H](N(C)C)C(O)=C(C(N)=O)C(=O)[C@@]3(O)C(O)=C1C2=O", "note": "[WO 2006/128150 IV, (4S,4aS,5aR,12aS)-4,7-Bis(dimethylamino)-9-[[[(1,1-dimethylethyl)amino]acetyl]amino]-1,4,4a,5,5a,6,11,12a-octahydro-3,10,12,12a-tetrahydroxy-1,11-dioxo-2-naphthacenecarboxamide]", "values": [{"measurement": "4-EPI-TIGECYCLINE AT AMBIENT CONDITIONS", "setting": "[2]", "value": 0.23}, {"measurement": "TOTAL IMPURITIES AT AMBIENT CONDITIONS", "setting": "[2]", "value": 0.40}]}
{"smiles": "CN(C)c1cc(NC(=O)CNC(C)(C)C)c(O)c2c1C[C@H]1C[C@H]3[C@H](N(C)C)C(O)=C(C(N)=O)C(=O)[C@@]3(O)C(O)=C1C2=O", "note": "[WO 2006/128150 V, (4S,4aS,5aR,12aS)-4,7-Bis(dimethylamino)-9-[[[(1,1-dimethylethyl)amino]acetyl]amino]-1,4,4a,5,5a,6,11,12a-octahydro-3,10,12,12a-tetrahydroxy-1,11-dioxo-2-naphthacenecarboxamide]", "values": [{"measurement": "4-EPI-TIGECYCLINE AT AMBIENT CONDITIONS", "setting": "[2]", "value": "<0.05"}, {"measurement": "TOTAL IMPURITIES AT AMBIENT CONDITIONS", "setting": "[2]", "value": 0.22}]}
{"smiles": "CN(C)c1cc(NC(=O)CNC(C)(C)C)c(O)c2c1C[C@H]1C[C@H]3[C@H](N(C)C)C(O)=C(C(N)=O)C(=O)[C@@]3(O)C(O)=C1C2=O", "note": "[WO 2007/127292 I, (4S,4aS,5aR,12aS)-4,7-Bis(dimethylamino)-9-[[[(1,1-dimethylethyl)amino]acetyl]amino]-1,4,4a,5,5a,6,11,12a-octahydro-3,10,12,12a-tetrahydroxy-1,11-dioxo-2-naphthacenecarboxamide]", "values": [{"measurement": "4-EPI-TIGECYCLINE AT AMBIENT CONDITIONS", "setting": "[2]; listed as WO2007/127792 I", "value": 0.34}, {"measurement": "TOTAL IMPURITIES AT AMBIENT CONDITIONS", "setting": "[2]; listed as WO2007/127792 I", "value": 0.59}]}
{"smiles": "CN(C)c1cc(NC(=O)CNC(C)(C)C)c(O)c2c1C[C@H]1C[C@H]3[C@H](N(C)C)C(O)=C(C(N)=O)C(=O)[C@@]3(O)C(O)=C1C2=O", "note": "[WO 2007/127292 II, (4S,4aS,5aR,12aS)-4,7-Bis(dimethylamino)-9-[[[(1,1-dimethylethyl)amino]acetyl]amino]-1,4,4a,5,5a,6,11,12a-octahydro-3,10,12,12a-tetrahydroxy-1,11-dioxo-2-naphthacenecarboxamide]", "values": [{"measurement": "4-EPI-TIGECYCLINE AT AMBIENT CONDITIONS", "setting": "[2]; listed as WO2007/127792 II", "value": 0.17}, {"measurement": "TOTAL IMPURITIES AT AMBIENT CONDITIONS", "setting": "[2]; listed as WO2007/127792 II", "value": 0.24}]}
{"smiles": "CN(C)c1cc(NC(=O)CNC(C)(C)C)c(O)c2c1C[C@H]1C[C@H]3[C@H](N(C)C)C(O)=C(C(N)=O)C(=O)[C@@]3(O)C(O)=C1C2=O.Cl", "note": "[amorphous Tigecycline hydrochloride, Tigecycline hydrochloride]", "values": [{"measurement": "4-Epi-Tigecycline content", "setting": "[5]", "value": 19.56, "unit": "%"}, {"measurement": "total impurities", "setting": "[5]", "value": 21.55, "unit": "%"}]}
